Assay results taken from publication PMC7459852, “Identification of 6-(piperazin-1-yl)-1,3,5-triazine as a chemical scaffold with broad anti-schistosomal activities” (Wellcome Open Research, 2020).
Read-outs that look alike come from different tables or passages of the source.

Tests used:
[1] = MTT cytotoxicity assay on HepG2 cells; format: cell-based, Human; conditions: human, HepG2 cells, MTT, 24 h; three dose response titrations (200 - 1 µM)
Protocol: (§1) Compound cytotoxicity on Human Hepatocyte Carcinoma (HepG2) cells (85011430, Sigma Aldrich) was elucidated by the MTT (3-(4,5-dimethylthiazol-2-yl)-2,5-diphenyltetrazolium bromide) tetrazolium reduction assay as previously described, [28], [50]. Briefly, HepG2 cells were seeded at a density of 20,000 per well in 96-well black, clear bottom falcon plate in modified BME medium (50 μl; containing 1% antibiotic/mycotic (Sigma-Aldrich, Gillingham, UK), 1% 200 mM L-glutammine (Gibco, Paisley, UK), 1% MEM non-essential amino acid solution (Gibco, Paisley, UK), and 10% fetal bovine serum (Gibco, Paisley, UK)). HepG2 plates seeded for cytotoxicity screens were treated with compounds 24 h post-seeding. Each compound was tested at 200, 100, 75, 50, 20, 10 and 1 µM; each concentration was assayed in triplicate. Blank wells (no cells), as well as positive (1% v/v Triton X-100, X100, Sigma-Aldrich) and negative (1.25% v/v DMSO or media only) controls, were included in each plate. After addition of compounds, each plate was then incubated for a further 20 h before application of MTT reagent for assessment of compound cytotoxicity (4 h incubation with MTT for a total 24 h cell-drug incubation). The absorbance reading at 570 nm was measured with a POLARstar Omega (BMG Labtech, UK) microtiter plate reader. Dose response curves were generated in GraphPad Prism 7.02 based on the corrected average absorbance of the three replicates for each concentration point.

HepG2 cells = assay: MTT cytotoxicity assay on HepG2 cells; format: cell-based, Human
Protocol: as §1

S. mansoni schistosomula = assay: Schistosomula screens (Roboworm, phenotype and motility); format: cell-based, Schistosoma mansoni; conditions: 72 h; for EC50: Schistosoma mansoni, dose response titrations (10 - 0.625 µM)
Protocol: Anthelmintic activity on the schistosomula stage of S. mansoni was evaluated using Roboworm, an integrated high-throughput, high content image analysis platform originally developed by Paveley et al. and subsequently used by our research group as previously described, [28], [50], [51]. Alternatively, the computer application Worminator can be used to assess motion of microscopic parasites such as the schistosomula stage of S. mansoni. Compounds (as single concentration or two-fold titrations) were prepared for screening in a 384-well plate (PerkinElmer, MA, USA), where solutions (1.6 mM, 0.5 μl) were wet stamped using the Biomek NX ^P liquid handling platform into Basch medium (20 μl). Negative (0.625% DMSO) and positive (Auranofin - AUR - at 10 µM final concentration in 0.625% DMSO) control wells were similarly prepared. Mechanically transformed schistosomula (about 120 parasites in 60 μl of Basch medium) were distributed into each treated well using a WellMate (Thermo Scientific, Loughborough, UK). Schistosomula/compound co-cultures were then incubated at 37°C for 72 h in a humidified atmosphere containing 5% CO 2. At 72 h, parasite/compound co-cultures were resuspended and tissue culture plates were imaged under the same conditions (37°C for 72 h in a humidified atmosphere containing 5% CO 2) using an ImageXpressXL high content imager (Molecular Devices, UK) with subsequent images processed for phenotype and motility as previously reported. Plate analysis returned a phenotype and motility score for each well and any scores below -0.15 and -0.35 (defined threshold anti-schistosomula values for phenotype and motility scores, respectively) defined a condition displaying anti-schistosomula activity. Compound screens were assessed based on the Z´ values (derived from the means and standard deviations of positive and negative controls) and those equal to or above 0.3 for both phenotype and motility were considered successful.
Phenotype and motility scores of each titration were used to generate dose response curves in GraphPad Prism 7.02 based on the corrected average score of the three replicates for each data point.

S. mansoni miracidia = assay: Miracidia to sporocyst transformation screens; format: cell-based, Schistosoma mansoni; conditions: 10 µM, 48 h
Protocol: Following hatching of S. mansoni eggs, miracidia were incubated on ice for 15 min and then centrifuged at 700 x g for 5 min at 4°C. The miracidia pellet was then re-suspended in 5 ml of Chernin's balanced salt solution (CBSS), subjected to pelleting and two subsequent washes (all at 700 x g for 5 min at 4°C). Afterwards, the supernatant was carefully removed with a serological pipette and the miracidia-enriched pellet was resuspended with CBSS supplemented with 1 mg/ml each of glucose and trehalose and 500 µl of Penicillin-Streptomycin (containing 10,000 units penicillin and 10 mg streptomycin/ml, P4333, Sigma-Aldrich). In preparation for the screens, CBSS (250 µl) was aliquoted to each well of a 24-well plate followed by addition of each compound in DMSO (1 mM concentration in 1% DMSO) or DMSO alone (1%, negative control). Next, approximately 20-25 miracidia (in 250 µl of CBSS) were aliquoted to each well. […] Both preliminary and secondary screens were performed in duplicate on two separate occasions (two independent biological replicates). Miracidia were incubated for 48 h at 26°C before being evaluated using an Olympus inverted light microscope for morphological and behavioural changes differing from the control wells. Dead, partially transformed and fully transformed miracidia were enumerated in the DMSO control and the assay plates as previously described, [23], [59]. […] Absence of ciliated plates attached to the surface of the parasite and formation of sporocyst tegument defined the so-called “fully transformed” parasites.

S. mansoni adult worms = assay: Adult worm screens (WormassayGP2 motility, egg count); format: cell-based, Schistosoma mansoni; conditions: 72 h
Protocol: For compound screening, adult worms (three worm pairs/well for compound 7 and the hit compounds of set two; one worm pair/well for the hit compounds of set three) were transferred into wells of a 48-well tissue culture plate containing 1 ml of adult worm media. Adult worms were treated with compounds previously identified as hits at 10 µM on 72 h cultured schistosomula. Worms were dosed with an appropriate volume of 10 mM stock solution of each compound (in DMSO) to have a concentration range of 50 – 6.25 µM (up to 0.5% DMSO, primary screen of compound 7). Secondary screens were performed on the structural analogues of compound 7 (only the schistosomula hits at 10 µM) at a single concentration (12.5 µM) and compared to the same concentration of the parental compound (included in the screen as reference). DMSO (0.5%) and praziquantel (10 µM in 0.5% DMSO) were also included as negative and positive control treatments (both primary and secondary screens). Treated adult worms were incubated for 72 h in a humidified environment at 5% CO 2 at 37°C. Parasite motility after drug treatment was assessed by a digital image processing-based system (WormassayGP2, see Software availability) modified after Wormassay, [56], [57]. Egg production was assessed according to the methodology described by Edwards et al..

Schistosoma mansoni [2] = tested on: Schistosoma mansoni; design: method as in PMID 24037106; conditions: cited from earlier work
Schistosoma mansoni [3] = tested on: Schistosoma mansoni; design: method as in PMID 24037106; conditions: cited from earlier work; remark: listed apart in the source

Structure (SMILES)	CC50 at 24 h [1]	CC50 (HepG2 cells; MTT, 24 h, three dose response titrations (200 - 1 µM))	cytotoxicity on HepG2 cells (in words) (HepG2 cells; dose response titration)	anti-schistosomula activity (hit on phenotype and motility) (S. mansoni schistosomula; 50 µM)	EC50 (S. mansoni schistosomula; read-out: Schistosomula EC50 Motility)	EC50 (S. mansoni schistosomula; read-out: Schistosomula EC50 Phenotype)	effect on miracidia (S. mansoni miracidia)	adult worm motility and oviposition (S. mansoni adult worms; 6.25 µM, compared to compound 7)	adult worm egg production (S. mansoni adult worms; 12.5 µM)	adult worm motility compared to compound 7 (S. mansoni adult worms; 12.5 µM)	in vivo anti-schistosomal activity (Schistosoma mansoni [2])	in vitro anti-schistosomal activity (Schistosoma mansoni [3])
Cc1ccc(Nc2nc(C3CCCCC3)nc(N3CCNCC3)n2)cc1 [Compound 23]	< 10 µM	6.73 µM	showed the highest toxicity	active at the highest concentration	2.79 µM	3.06 µM	readily killed miracidia	strong anthelmintic activities	greater potency than compound 7	greater potency than compound 7		
Cc1ccc(NC(=O)c2ccc(CN3CCN(C)CC3)cc2)cc1Nc1nccc(-c2cccnc2)n1 [Imatinib]											lost in vivo	potent in vitro anti-schistosomal activity
